According to the supplement of paper PMC10307832:

Key:
Assay in all cases: relative viability (nuclei count vs DMSO), 5 days (fraction); higher = more cells survive
[1] = compound: CCN1CCN(c2ccc(Nc3cc(N(C)C(=O)Nc4c(Cl)c(OC)cc(OC)c4Cl)ncn3)cc2)CC1 [BGJ398] + Cc1cc(Nc2cc(N3CCN(C)CC3)nc(Sc3ccc(NC(=O)C4CC4)cc3)n2)n[nH]1 [Tozasertib] (partner 0.1 µM)
Procedure, shortened: (§1)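 Relative viability equals treated-well nuclei counts divided by vehicle-well nuclei counts. Counts came from 4× images of lung cancer cell lines grown in 1536-well plates for 5 days after pin-tool dosing on the day after seeding. Dosing used one drug alone or a fixed anchor-drug dose plus five library-drug doses (not always all listed) in √10 steps, and values are medians of duplicate plates.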

[2] = compound: C1=CC2=NC=CN=C2C=C1/C=C/3\C(=O)NC(=O)S3 + C[C@@H](Oc1cc(-c2cnn(C3CCNCC3)c2)cnc1N)c1c(Cl)ccc(F)c1Cl [Crizotinib] (partner 1 µM)
Procedure, shortened: as §1

[3] = compound: CCN1CCN(c2ccc(Nc3cc(N(C)C(=O)Nc4c(Cl)c(OC)cc(OC)c4Cl)ncn3)cc2)CC1 [BGJ398] + O=C(CCCCCCC(=O)Nc1ccccc1)NO [Vorinostat] (partner 1 µM)
Procedure, shortened: as §1

[4] = compound: C1=CC2=NC=CN=C2C=C1/C=C/3\C(=O)NC(=O)S3 + Nc1ncn([C@H]2C[C@H](O)[C@@H](CO)O2)c(=O)n1 [Decitabine] (partner 2 µM)
Procedure, shortened: as §1

Cell Line | relative viability ([1]; first compound 0.01 µM) | relative viability ([1]; first compound 0.03162 µM) | relative viability ([1]; first compound 0.1 µM) | relative viability ([1]; first compound 0.3162 µM) | relative viability ([1]; first compound 1 µM) | relative viability ([2]; first compound 0.02 µM) | relative viability ([2]; first compound 0.06325 µM) | relative viability ([2]; first compound 0.2 µM) | relative viability ([2]; first compound 0.6325 µM) | relative viability ([2]; first compound 2 µM) | relative viability ([3]; first compound 0.01 µM) | relative viability ([3]; first compound 0.03162 µM) | relative viability ([3]; first compound 0.1 µM) | relative viability ([3]; first compound 0.3162 µM) | relative viability ([3]; first compound 1 µM) | relative viability ([4]; first compound 0.02 µM) | relative viability ([4]; first compound 0.06325 µM) | relative viability ([4]; first compound 0.2 µM) | relative viability ([4]; first compound 0.6325 µM) | relative viability ([4]; first compound 2 µM)
NCI-H322M | 0.479 | 0.462 | 0.461 | 0.525 | 0.521 | 0.858 | 0.778 | 1.1 | 0.823 | 0.943 | 1.04 | 0.853 | 0.942 | 0.892 | 0.876 | 0.693 | 0.776 | 0.798 | 0.665 | 0.692
NCI-H647 | 0.366 | 0.294 | 0.406 | 0.24 | 0.304 | 0.989 | 1.77 | 1.19 | 1.03 | 1 | 0.471 | 0.549 | 0.482 | 0.51 | 0.626 | 0.339 | 0.458 | 0.382 | 0.432 | 0.488
SK-MES-1 | 0.87 | 0.892 | 0.829 | 0.785 | 0.857 | 0.965 | 1.11 | 1.02 | 0.981 | 1 | 1.05 | 1.11 | 1.03 | 1.09 | 0.913 | 0.353 | 0.403 | 0.437 | 0.357 | 0.331
NCI-H2170 | 0.804 | 0.714 | 0.687 | 0.694 | 0.78 | 1.14 | 1.22 | 1.2 | 1.16 | 1.34 | 0.823 | 0.814 | 0.847 | 0.821 | 0.861 | 0.467 | 0.47 | 0.451 | 0.414 | 0.46
NCI-H2085 | 0.961 | 0.877 | 0.74 | 0.732 | 0.669 | 0.897 | 0.917 | 0.766 | 0.829 | 0.937 | 0.741 | 0.751 | 0.863 | 0.832 | 0.815 | 0.495 | 0.457 | 0.578 | 0.539 | 0.566
SW 1573 | 0.182 | 0.171 | 0.185 | 0.189 | 0.171 | 0.729 | 0.816 | 0.825 | 0.831 | 0.742 | 0.742 | 0.796 | 0.713 | 0.854 | 0.786 | 0.506 | 0.65 | 0.603 | 0.544 | 0.367
NCI-H727 | 0.574 | 0.751 | 0.816 | 0.585 | 0.605 | 0.768 | 0.842 | 0.75 | 0.794 | 0.517 | 1.06 | 1.26 | 1.21 | 1.22 | 0.858 | 0.891 | 0.848 | 0.957 | 0.915 | 0.445
NCI-H441 | 0.702 | 0.652 | 0.529 | 0.615 | 0.687 | 0.577 | 0.716 | 0.698 | 0.827 | 0.644 |  | 0.73 | 0.822 | 0.916 | 0.81 | 0.246 | 0.284 | 0.251 | 0.23 | 0.287
LOU-NH91 | 0.656 |  | 0.698 | 0.541 | 0.737 | 0.717 | 0.761 | 0.745 | 0.755 | 0.72 | 0.896 | 0.896 | 0.957 | 0.748 | 0.883 | 0.797 | 0.849 | 0.83 | 0.782 | 0.756
NCI-H3122 | 0.383 | 0.403 | 0.377 | 0.407 | 0.379 | 0.298 | 0.253 | 0.277 | 0.265 | 0.203 | 0.99 | 0.991 | 1.01 | 0.996 | 1.2 | 0.434 | 0.431 | 0.468 | 0.459 | 0.403
NCI-H460 | 0.446 | 0.558 | 0.437 | 0.372 | 0.456 | 0.783 | 1.22 | 0.959 | 0.831 | 0.853 | 0.737 | 0.706 | 1.18 | 0.809 | 0.67 | 0.524 | 0.389 | 0.515 | 0.459 | 0.534
NCI-H650 | 0.681 | 0.809 | 0.802 | 0.785 | 0.75 | 0.805 | 0.707 | 0.627 | 0.714 | 0.652 | 0.414 | 0.427 | 0.543 | 0.464 | 0.411 | 0.32 | 0.287 | 0.356 | 0.319 | 0.342
NCI-H661 | 0.325 | 0.369 | 0.365 | 0.354 | 0.362 | 0.87 | 0.809 | 0.945 | 1 | 0.987 | 0.774 | 0.796 | 0.806 | 0.731 | 0.801 | 0.555 | 0.571 | 0.574 | 0.527 | 0.575
NCI-H1734 | 0.259 | 0.266 | 0.222 | 0.258 | 0.26 | 0.665 |  | 0.808 | 0.637 | 0.611 | 0.794 | 0.913 | 0.848 | 0.841 | 0.907 | 0.483 |  | 0.517 | 0.501 | 0.489
LXF-289 | 0.173 | 0.189 | 0.207 | 0.167 | 0.196 | 0.766 | 0.735 | 0.785 | 0.777 | 0.858 | 0.746 | 0.666 | 0.769 | 0.608 | 0.73 | 0.357 | 0.374 | 0.334 | 0.379 | 0.389
H3255 | 0.628 |  | 0.472 | 0.743 | 0.608 | 0.851 | 0.929 | 0.746 | 0.916 | 0.886 | 0.793 |  | 0.77 |  | 0.795 | 0.6 | 0.649 | 0.595 | 0.534 | 0.622
